# Measured values: PMC7349874, “High Content Screening Using New U2OS Reporter Cell Models Identifies Harmol Hydrochloride as a Selective and Competitive Antagonist of the Androgen Receptor” (Cells, 2020)
# Tests used:
# [1] = design: method as in PMID 20398925; conditions: cited from earlier work
# [2] = test system: VCaP spheroids
# Protocol: (§1) prostate cancer cells. GAPDH was used as a loading control.
# (§2) Spheroids were treated for 7 days with the indicated concentrations of each drug, stained with PI (1 mg/mL) for 30 min and […] was evaluated using the Celigo® imaging system. Results are expressed as mortality ratios as compared to untreated spheroids (set at 1). Each point represent s the m ean ± SEM of 3 […]
# (§3) Mortality (ratio/control)
# (§4) [Harmol Hydrochloride] (M)
# [3] = test system: LNCaP spheroids
# Protocol: as §1, §2, §3, §4
# [4] = test system: VCaP cells; experiment: Spheroid growth (CellTiter-Glo), VCaP; conditions: 7 days, 1 nM R1881
# Protocol: (§5) Spheroids were generated by seeding prostate cancer cells in non-adherent U-bottom 96-well plates in medium supplemented with 5% of charcoal stripped FBS. VCaP, LNCaP-FGC, DU145, or PC3 cells were seeded in duplicate at a density of 2000, 500, 600, and 600 cells per well, respectively. […] Cell death was first evaluated by the incubation of the spheroids with propidium iodide (1 mg/mL) for 30 min, and quantitation of red fluorescence was performed using a Celigo® imaging cytometer (Nexcelom Bioscience). […] Then, proliferation was assessed following cell lysis with the CellTiter-Glo® Luminescent Cell Viability Assay reagent (Promega, Charbonnière, France), according to the manufacturer protocol. Quantification of the luminescence was performed using a MicroBeta Wallac luminometer (PerkinElmer), and percent growth was calculated relative to DMSO treated cells.
# (§6) Spheroids were treated for 7 days, and cell death was evaluated by propidium iodide staining and fluorescence quantification, using the Celigo imaging system. Growth inhibition was then assessed by cell lysis with CellTiter-Glo, and quantification of the luminescence using a MicroBeta Wallac luminometer. Percent growth was calculated relative to dimethyl sulfoxide (DMSO) treated cells (n = 3 ± SEM).
# [5] = test system: GR; experiment: GR expression (RT-qPCR and Western blot) in VCaP cells; conditions: 3 µM, 24 h, 1 nM R1881
# Protocol: (§7) LNCaP and VCaP cells were seeded in 6-well plates (10^6 and 2 × 10^6 cells per well, respectively) and, 48 h later, complete medium was replaced by charcoal-stripped medium with 5% FBS. Cells were then treated for 24 h with the tested compounds, and RNA extraction was performed using the Quick RNA Miniprep kit (Zymo-Research, Irvine, CA, USA), according to the manufacturer’s protocol. Reverse transcription was performed with 0.5 µg total RNA using the SuperScript III reverse transcriptase kit (ThermoFisher, Waltham, MA, USA), according to the manufacturer’s protocol, in a final volume of 20 µL. The levels of genes transcripts were measured by real time PCR using a LightCycler 480 system (Roche Life Science, Penzberg, Germany) in the presence of SYBRGreen (SYBR® Premix Ex Taq^tm) and the following primers: FKBP5, sense 5′-[sequence]-3′; antisense 5′-[sequence]-3′; PSA, sense 5′-[sequence]-3′; antisense 5′-[sequence]-3′; TMPRSS2, sense 5′-[sequence]-3′, antisense 5′-[sequence]-3′; GR, sense 5′-[sequence]-3′, antisense 5′-[sequence]-3′; HPRT, sense 5′-[sequence]-3′; antisense 5′-[sequence]-3′; GAPDH, sense 5′-[sequence]-3′; antisense 5′-[sequence]-3′. Expression levels were evaluated with the ΔΔCt method and were normalized to GAPDH. Results are expressed as mRNA expression, relative to control (untreated cells), and are the mean ± SEM of 3 independent experiments. […]
# [6] = test system: GR; experiment: GR expression (RT-qPCR and Western blot) in LNCaP cells; conditions: 3 µM, 24 h, 1 nM R1881
# Protocol: as §7
# [7] = test system: LNCaP cells; experiment: Spheroid growth (CellTiter-Glo), LNCaP; conditions: 7 days, 1 nM R1881
# Protocol: as §5, §6
# [8] = target: T1, mineralocorticoid receptor (MR) (Homo sapiens, UniProt P08235); experiment: Transactivation assay in HG5LN MR cells; type: cell-based; conditions: 16 h, 1 nM aldosterone, highest concentrations used (>1 µM)
# T1 construct: expressed in transfected cells
# T1 sequence (P08235 726-964 limits assumed): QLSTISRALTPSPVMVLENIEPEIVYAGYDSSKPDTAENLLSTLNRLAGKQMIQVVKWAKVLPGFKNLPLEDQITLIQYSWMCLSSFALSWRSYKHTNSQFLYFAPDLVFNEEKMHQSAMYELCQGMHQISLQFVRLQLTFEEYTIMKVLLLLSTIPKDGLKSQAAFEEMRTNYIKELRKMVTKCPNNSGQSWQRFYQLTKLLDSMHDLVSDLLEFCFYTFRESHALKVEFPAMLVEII
# Description: HG5LN MR and HG5LN PXR luciferase reporter cell lines were obtained by stable expression of individual ligand binding domains fused to GAL4 DNA binding domain in HG5LN (HeLa GAL4REx5-luciferase) cells, as previously described. HELN PR cells were obtained by stably expressing PR with the ERα DNA binding domain in HELN (HeLa ERE-luciferase) cells and HMLN GR cells were obtained by stable co-transfection of HeLa cells with a plasmid encoding for a glucocorticoid responsive gene (MMTV-Luc-SV-Neo) and a glucocorticoid receptor expressing plasmid, as previously described.
# Agonistic activities were evaluated in HMLN GR, HELN PR, HG5LN MR, and HG5LN PXR cells, using dexamethasone 100 nM, R5020 100 nM, aldosterone 100 nM, and SR12813 3 μM as a positive control, respectively. […] RU486 was used as a control antagonist for GR and PR, and spironolactone for MR.
# HMLN glucocorticoid receptor (GR), HG5LN mineralocorticoid receptor (MR), HELN progesterone receptor (PR) and HG5LN PXR cells were used to evaluate the antagonistic effect of the tested compounds on (A) the glucocorticoid receptor (GR), (B) the mineralocorticoid receptor (MR), (C) the progesterone receptor (PR) and (D) the agonistic activity towards the pregnane X receptor (PXR). […]
# [9] = test system: AR target genes TMPRSS2, FKBP5, PSA; experiment: RT-qPCR of AR target genes in VCaP cells; conditions: 3 µM, 24 h, 1 nM R1881
# Protocol: (§8) LNCaP and VCaP cells were seeded in 6-well plates (10^6 and 2 × 10^6 cells per well, respectively) and, 48 h later, complete medium was replaced by charcoal-stripped medium with 5% FBS. Cells were then treated for 24 h with the tested compounds, and RNA extraction was performed using the Quick RNA Miniprep kit (Zymo-Research, Irvine, CA, USA), according to the manufacturer’s protocol. Reverse transcription was performed with 0.5 µg total RNA using the SuperScript III reverse transcriptase kit (ThermoFisher, Waltham, MA, USA), according to the manufacturer’s protocol, in a final volume of 20 µL. The levels of genes transcripts were measured by real time PCR using a LightCycler 480 system (Roche Life Science, Penzberg, Germany) in the presence of SYBRGreen (SYBR® Premix Ex Taq^tm) and the following primers: FKBP5, sense 5′-[sequence]-3′; antisense 5′-[sequence]-3′; PSA, sense 5′-[sequence]-3′; antisense 5′-[sequence]-3′; TMPRSS2, sense 5′-[sequence]-3′, antisense 5′-[sequence]-3′; GR, sense 5′-[sequence]-3′, antisense 5′-[sequence]-3′; HPRT, sense 5′-[sequence]-3′; antisense 5′-[sequence]-3′; GAPDH, sense 5′-[sequence]-3′; antisense 5′-[sequence]-3′. Expression levels were evaluated with the ΔΔCt method and were normalized to GAPDH. Results are expressed as mRNA expression, relative to control (untreated cells), and are the mean ± SEM of 3 independent experiments.
# [10] = test system: AR target genes TMPRSS2, FKBP5, PSA; experiment: RT-qPCR of AR target genes in LNCaP cells; conditions: 3 µM, 24 h, 1 nM R1881
# Protocol: as §8
smiles,measurement,setting,value
"CNC(=O)c1ccc(N2C(=S)N(c3ccc(C#N)c(C(F)(F)F)c3)C(=O)C2(C)C)cc1F [enzalutamide, reference compound]",Cmin required to saturate binding to AR,[1],10 to 30 µM
same,Cell death (propidium iodide positive cells) versus untreated spheroids,[2],did not significantly affect the number of propidium iodide positive cells
same,Cell death (propidium iodide positive cells) versus untreated spheroids,[3],did not significantly affect the number of propidium iodide positive cells
same,Growth of VCaP spheroids,[4],could inhibit the growth
same,Expression of GR at the mRNA and protein levels,[5],neither harmol nor enzalutamide treatment could significantly alter the expression of GR
same,Expression of GR at the mRNA and protein levels,[6],neither harmol nor enzalutamide treatment could significantly alter the expression of GR
same,Growth of LNCaP spheroids,[7],"could inhibit the growth of VCaP and LNCaP cells, tough to a lesser extent"
same,Antagonistic activity towards MR,[8],small antagonistic activity
same,"R1881-mediated expression of AR target genes TMPRSS2, FKBP5, PSA",[9],more pronounced for enzalutamide than for harmol hydrochloride
same,"R1881-mediated expression of AR target genes TMPRSS2, FKBP5, PSA",[10],more pronounced for enzalutamide than for harmol hydrochloride
